IC50 data for 18 compounds are collected here from patent publication US20210070748A1, “INHIBITORS OF BRUTONS TYROSINE KINASE” (Pharmacyclics LLC, priority 2015, published 2021).

What all share (type): biochemical
The target in one test is LCK (Homo sapiens, UniProt P06239). Kind of test: Inhibition of a panel of kinases, in vitro HotSpot kinase assay: LCK. As to conditions: D-compounds panel data; 1 μM ATP; read-out: IC50 LCK.
The next test has as its target T1, ITK (Homo sapiens, UniProt Q08881).
T1 sequence (Q08881 1-620): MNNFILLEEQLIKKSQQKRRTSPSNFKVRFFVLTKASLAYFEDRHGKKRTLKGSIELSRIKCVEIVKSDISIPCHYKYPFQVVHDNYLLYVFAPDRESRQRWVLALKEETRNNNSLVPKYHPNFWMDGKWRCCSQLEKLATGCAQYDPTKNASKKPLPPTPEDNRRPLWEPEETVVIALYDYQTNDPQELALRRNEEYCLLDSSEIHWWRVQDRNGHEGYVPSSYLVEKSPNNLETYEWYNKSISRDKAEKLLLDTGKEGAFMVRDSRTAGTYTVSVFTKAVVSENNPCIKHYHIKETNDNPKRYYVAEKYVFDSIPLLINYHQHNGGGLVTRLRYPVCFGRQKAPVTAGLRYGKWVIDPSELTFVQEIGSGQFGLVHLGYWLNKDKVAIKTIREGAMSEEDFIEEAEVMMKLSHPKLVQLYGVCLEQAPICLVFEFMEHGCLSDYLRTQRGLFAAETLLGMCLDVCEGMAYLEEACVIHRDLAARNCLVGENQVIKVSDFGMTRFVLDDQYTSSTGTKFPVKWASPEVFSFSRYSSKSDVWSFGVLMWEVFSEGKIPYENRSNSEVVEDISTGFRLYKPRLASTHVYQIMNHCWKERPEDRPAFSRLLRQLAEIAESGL
Kind of test: Inhibition of a panel of kinases, in vitro HotSpot kinase assay: ITK. The note with it: D-compounds panel data; 1 μM ATP. On the procedure:
(§1) The degree of inhibition of a panel of kinases is determined using the in vitro HotSpot kinase assay (purified enzymes, ^33P-ATP, an appropriate substrate and 1 μM ATP).

Another test deals with T2, TEC (Homo sapiens, UniProt P42680).
T2 sequence (P42680 1-631): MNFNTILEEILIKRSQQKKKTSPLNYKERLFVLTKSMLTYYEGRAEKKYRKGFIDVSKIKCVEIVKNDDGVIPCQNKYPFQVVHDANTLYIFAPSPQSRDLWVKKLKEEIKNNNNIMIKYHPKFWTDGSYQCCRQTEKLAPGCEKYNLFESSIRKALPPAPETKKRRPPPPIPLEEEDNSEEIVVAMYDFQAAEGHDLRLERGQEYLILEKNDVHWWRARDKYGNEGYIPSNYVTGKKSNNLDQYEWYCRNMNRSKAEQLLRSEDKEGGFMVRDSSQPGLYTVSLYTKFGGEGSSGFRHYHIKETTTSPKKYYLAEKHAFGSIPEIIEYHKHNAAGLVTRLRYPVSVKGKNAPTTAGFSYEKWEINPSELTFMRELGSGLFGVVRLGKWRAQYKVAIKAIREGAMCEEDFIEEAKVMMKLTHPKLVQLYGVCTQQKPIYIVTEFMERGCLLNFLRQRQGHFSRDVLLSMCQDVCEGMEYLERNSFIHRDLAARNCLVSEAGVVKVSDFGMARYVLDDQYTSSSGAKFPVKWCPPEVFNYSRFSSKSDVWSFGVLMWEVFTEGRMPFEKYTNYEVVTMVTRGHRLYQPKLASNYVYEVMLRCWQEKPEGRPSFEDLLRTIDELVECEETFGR
Kind of test: Inhibition of a panel of kinases, in vitro HotSpot kinase assay: TEC. As to conditions: D-compounds panel data; 1 μM ATP. On the procedure:
as §1

Structures are written as SMILES.

Sequence of LCK (P06239 whole entry): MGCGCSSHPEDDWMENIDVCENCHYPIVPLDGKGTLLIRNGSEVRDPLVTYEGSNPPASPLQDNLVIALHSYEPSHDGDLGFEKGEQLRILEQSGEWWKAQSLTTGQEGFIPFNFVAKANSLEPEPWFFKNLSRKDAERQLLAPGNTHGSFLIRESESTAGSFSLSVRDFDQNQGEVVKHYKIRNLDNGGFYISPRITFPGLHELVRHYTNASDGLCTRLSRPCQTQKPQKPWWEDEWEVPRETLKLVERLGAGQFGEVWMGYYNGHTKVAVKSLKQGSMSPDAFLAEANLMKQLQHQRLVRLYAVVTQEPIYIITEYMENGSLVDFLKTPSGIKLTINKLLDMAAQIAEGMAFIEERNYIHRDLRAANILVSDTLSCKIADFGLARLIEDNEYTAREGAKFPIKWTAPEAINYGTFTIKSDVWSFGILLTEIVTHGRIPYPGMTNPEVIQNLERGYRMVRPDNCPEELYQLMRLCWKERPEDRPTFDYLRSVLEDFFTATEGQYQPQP

Broadly, the IC50 is the concentration that gives 50% inhibition. For the compound `Cc1cc(Nc2nc(N3CCC[C@@H](NC(=O)c4ccc(C(C)(C)O)cc4)[C@H]3C)cnc2C(N)=O)sn1` [Example D-159, 5-[(2R,3R)-3-[4-(2-hydroxypropan-2-yl)benzamido]-2-methylpiperidin-1-yl]-3-[(3-methyl-1,2-thiazol-5-yl)amino]pyrazine-2-carboxamide], the half-maximal inhibitory concentration (IC50) on LCK is 10 to 100 nM; against ITK, 100 to 1000 nM; on TEC, not above 10 nM.
As to `C[C@@H]1[C@H](NC(=O)c2ccc(OC(F)(F)F)cc2)CCCN1c1cnc(C(N)=O)c(Nc2cnn(C)c2)n1` [Example D-95, 3-[(1-methyl-1H-pyrazol-4-yl)amino]-5-[(2R,3R)-2-methyl-3-[4-(trifluoromethoxy)benzamido]piperidin-1-yl]pyrazine-2-carboxamide], the values for the IC50 at LCK, against ITK and against TEC were 100 to 1000 nM, 100 to 1000 nM and 10 to 100 nM, respectively.
As to `C[C@@H]1[C@H](NC(=O)c2ccc(C3CC3)cc2F)CCCN1c1cnc(C(N)=O)c(Nc2ccc(N3CCN(C)CC3)cc2)c1` [Example D-126, 5-[(2R,3R)-3-(4-cyclopropyl-2-fluorobenzamido)-2-methylpiperidin-1-yl]-3-{[4-(4-methylpiperazin-1-yl)phenyl]amino}pyridine-2-carboxamide], the results for the IC50 at LCK, against ITK and on TEC were 100 to 1000 nM, 1000 to 10000 nM and 1000 to 10000 nM, respectively.
For `CC(C)n1cc(Nc2nc(N3CCC[C@@H](NC(=O)c4ccc(C5CC5)cc4F)[C@H]3C)cnc2C(N)=O)cn1` [Example D-123, 5-[(2R,3R)-3-(4-cyclopropyl-2-fluorobenzamido)-2-methylpiperidin-1-yl]-3-{[1-(propan-2-yl)-1H-pyrazol-4-yl]amino}pyrazine-2-carboxamide], the half-maximal inhibitory concentration (IC50) on LCK was in the range of 100 to 1000 nM; at ITK it was 100 to 1000 nM; against TEC, 10 to 100 nM.
Turning to `Cc1cc(Nc2nc(N3CCCC(c4ncc(-c5ccccc5)[nH]4)C3)cnc2C(N)=O)sn1` [Example D-164, 3-[(3-methyl-1,2-thiazol-5-yl)amino]-5-[3-(4-phenyl-3H-imidazol-2-yl)piperidin-1-yl]pyrazine-2-carboxamide], the IC50 on LCK was in the range of 100 to 1000 nM; against ITK it was 1000 to 10000 nM; against TEC, 100 to 1000 nM.
Take `C[C@@H]1[C@H](NC(=O)c2ccc(C3CC3)cc2F)CCCN1c1cnc(C(N)=O)c(Nc2ccn(C)n2)n1` [Example D-129, 5-[(2R,3R)-3-(4-cyclopropyl-2-fluorobenzamido)-2-methylpiperidin-1-yl]-3-[(1-methyl-1H-pyrazol-3-yl)amino]pyrazine-2-carboxamide]: the IC50 at LCK, at ITK and on TEC was more than 10000 nM each time.
Take `C[C@@H]1[C@H](NC(=O)N(C)C)CCCN1c1cnc(C(N)=O)c(Nc2ccc(N3CCN(C)CC3)cc2)c1` [Example D-127, 5-[(2R,3R)-3-[(dimethylcarbamoyl)amino]-2-methylpiperidin-1-yl]-3-{[4-(4-methylpiperazin-1-yl)phenyl]amino}pyridine-2-carboxamide]: the IC50 at LCK, against ITK and at TEC was 1000 to 10000 nM each time.
With `C[C@@H]1[C@H](NC(=O)c2ccc(C3CC3)cc2)CCCN1c1cnc(C(N)=O)c(Nc2ccc(OC3CCCN(C)C3)cc2)n1` (stereo partly drawn) [Example D-105, 5-[(2R,3R)-3-(4-cyclopropylbenzamido)-2-methylpiperidin-1-yl]-3-({4-[(1-methylpiperidin-3-yl)oxy]phenyl}amino)pyrazine-2-carboxamide], the half-maximal inhibitory concentration (IC50) at LCK is 10 to 100 nM; against ITK, 10 to 100 nM; against TEC, not above 10 nM.
For `C[C@@H]1[C@H](NC(=O)c2ccc(C3CC3)cc2F)CCCN1c1cnc(C(N)=O)c(Nc2ccc(C3(C)CCN(C4CCC4)CC3)cc2)n1` [Example D-134, 3-{[4-(1-cyclobutyl-4-methylpiperidin-4-yl)phenyl]amino}-5-[(2R,3R)-3-(4-cyclopropyl-2-fluorobenzamido)-2-methylpiperidin-1-yl]pyrazine-2-carboxamide], the IC50 on LCK, at ITK and against TEC was 10 to 100 nM each time.
Consider `C[C@@H]1CC[C@H](NC(=O)c2ccc(C3CC3)cc2)CN1c1cnc(C(N)=O)c(Nc2ccc(N3CCN(C)CC3)cc2)n1` [Example D-153, 5-[(2R,5S)-5-(4-cyclopropylbenzamido)-2-methylpiperidin-1-yl]-3-{[4-(4-methylpiperazin-1-yl)phenyl]amino}pyrazine-2-carboxamide], for which the IC50 at LCK is 10 to 100 nM; against ITK it was 10 to 100 nM; against TEC it was not above 10 nM.
Turning to `C[C@@H]1[C@H](NC(=O)c2ccc(C3CC3)cc2F)CCCN1c1cnc(C(N)=O)c(Nc2ccc(N3CCN(C4CCCC4)CC3)cc2)n1` [Example D-5, 3-{[4-(4-cyclopentylpiperazin-1-yl)phenyl]amino}-5-[(2R,3R)-3-(4-cyclopropyl-2-fluorobenzamido)-2-methylpiperidin-1-yl]pyrazine-2-carboxamide], the figures for the IC50 at LCK, against ITK and against TEC were 100 to 1000 nM, 100 to 1000 nM and 10 to 100 nM, respectively.
As for `C[C@@H]1[C@H](NC(=O)c2ccc(C3CC3)cc2)CCCN1c1cnc(C(N)=O)c(Nc2cnn(C)c2)n1` [Example D-135, 5-[(2R,3R)-3-(4-cyclopropylbenzamido)-2-methylpiperidin-1-yl]-3-[(1-methyl-1H-pyrazol-4-yl)amino]pyrazine-2-carboxamide], the IC50 fell in the range of 100 to 1000 nM on LCK, 100 to 1000 nM against ITK and 10 to 100 nM against TEC.
On to `C[C@@H]1[C@H](NC(=O)c2ccc(C3CC3)cc2F)CCCN1c1cnc(C(N)=O)c(Nc2ccc3cccnc3c2)n1` [Example D-124, 5-[(2R,3R)-3-(4-cyclopropyl-2-fluorobenzamido)-2-methylpiperidin-1-yl]-3-[(quinolin-7-yl)amino]pyrazine-2-carboxamide], for which the IC50 at LCK is more than 10000 nM; against ITK it was more than 10000 nM; against TEC, 1000 to 10000 nM.
Take `C[C@@H]1[C@H](NC(=O)c2ccc(C(F)(F)F)cc2)CCCN1c1cnc(C(N)=O)c(Nc2ccc(N3CCN(C)CC3)cc2)n1` [Example D-11, 5-[(2R,3R)-2-methyl-3-[4-(trifluoromethyl)benzamido]piperidin-1-yl]-3-{[4-(4-methylpiperazin-1-yl)phenyl]amino}pyrazine-2-carboxamide]: the IC50 on LCK was in the range of 10 to 100 nM; against ITK, 100 to 1000 nM; on TEC, 10 to 100 nM.
Take `C[C@@H]1[C@H](NC(=O)c2ccc(C3CC3)cc2F)CCCN1c1cnc(C(N)=O)c(Nc2cnn(C)c2)c1` [Example D-117, 5-[(2R,3R)-3-(4-cyclopropyl-2-fluorobenzamido)-2-methylpiperidin-1-yl]-3-[(1-methyl-1H-pyrazol-4-yl)amino]pyridine-2-carboxamide]: the IC50 on LCK fell in the range of 100 to 1000 nM; at ITK, 1000 to 10000 nM; against TEC it was 100 to 1000 nM.
As for `Cc1cc(Nc2nc(N3CCC[C@@H](n4ccc5cc(C6CC6)ccc5c4=O)C3)cnc2C(N)=O)sn1` [Example D-166, 5-[(3R)-3-(6-cyclopropyl-1-oxo-1,2-dihydroisoquinolin-2-yl)piperidin-1-yl]-3-[(3-methyl-1,2-thiazol-5-yl)amino]pyrazine-2-carboxamide], the IC50 on LCK, against ITK and against TEC was more than 10000 nM throughout.
Turning to `C[C@@H]1CC[C@@H](NC(=O)c2ccc(C3CC3)cc2)CN1c1cnc(C(N)=O)c(Nc2cnn(C)c2)n1` [Example D-143, 5-[(2R,5R)-5-(4-cyclopropylbenzamido)-2-methylpiperidin-1-yl]-3-[(1-methyl-1H-pyrazol-4-yl)amino]pyrazine-2-carboxamide], the IC50 at LCK was 1000 to 10000 nM; on ITK, more than 10000 nM; at TEC it was 100 to 1000 nM.
In the same order, the values of `C[C@@H]1[C@H](NC(=O)N(C)C)CCCN1c1cnc(C(N)=O)c(Nc2cnn(C)c2)n1` [Example D-128, 5-[(2R,3R)-3-[(dimethylcarbamoyl)amino]-2-methylpiperidin-1-yl]-3-[(1-methyl-1H-pyrazol-4-yl)amino]pyrazine-2-carboxamide] are 100 to 1000 nM, 100 to 1000 nM and 10 to 100 nM.
